From patent US20160109352A1, “METHODS AND APPARATUS FOR HIGH-THROUGHPUT LABEL-FREE CELL ASSAY” (INDUSTRY-ACADEMIC COOPERATION FOUNDATION YONSEI UNIVERSITY, priority 2014, published 2016)

Test system: cells
Assay: label-free cell assay by optical interference phase microscope
Type: cell-based
Conditions: for change in measurement values (phase) depending on concentration, by time: dosed in different concentration, measured by time (FIG. 5)
Description: FIG. 4 is a view showing an example of an image of cells photographed by an optical interference phase microscope beneath the transparent medium of the high-throughput label-free cell assay system.
FIG. 5 is a view showing an example of a measurement value by time in the high-throughput label-free cell assay system in a case that picolinic acid and histamine are separately given to cells in different concentration.

Row | SMILES | change in measurement values (phase) depending on concentration, by time | number of observed cells in optical interference phase image (half an hour after dosing, untreated cells showed no change after 30 minutes)
1 | NCCc1c[nH]cn1 [histamine] | remarkable changes in measurement values depending on concentration were observed | 
2 | O=C(O)c1ccccn1 [picolinic acid] | remarkable changes in measurement values depending on concentration were observed | remarkably reduced
